Laboratory results reported in US9611457B2, “Triazine derivatives as differentiation catalysts” (TECHNISCHE UNIVERSITAET WIEN, priority 2011, dated 2017).

Legend:
[1] = system: Atrial natriuretic factor (ANF) expression, C2C12 cells; experiment: ANF test (ANF promoter luciferase reporter) in C2C12 cells; format: cell-based, murine; set-up: key to Evaluation (luminescence in relation to the blank): −: decrease of luminescence compared to the blank value; +: measurable increase; ++: at least 1.5-fold increase; +++: at least 2-fold increase; conditions: for Evaluation (luminescence in relation to the blank): C2C12 cells (*), compound 1 μM in DMSO, relative to DMSO blank
Description: (§1) Atrial natriuretic factor (ANF) or atrial natriuretic peptide (ANP) is a cyclic peptide hormone made up of 28 amino acids, which is predominantly emitted by the muscle cells (myocytes) of the atrium of the heart. It is stored in the atrium as a pro-hormone made of 126 amino acids and is cleaved by serine protease corine into an N-terminal part and the biologically active ANF, which is often used as a cardiac-specific marker protein. In cell differentiation measurements, i.e. in determining the extent to which certain cells have become “cardiac cell-like” by differentiation, often a reporter gene located downstream of the ANF gene is used, as it expression product is easier to detect than the concentration of ANF in a cellular culture, for example, a luciferase gene. Luciferase in an enzyme which catalyzes the oxidation of a luminescent substrate (luciferine). While that happens, light is emitted, and the intensity of that light is correlated with the expression level of ANF and can therefore serve as a measure of ANF expression.
(§2) Initial attempts of ANF expression screenings were performed with P19 cells, i.e. murine embryonal carcinoma cells obtained from the ATCC, or C2C12 cells, i.e. a murine myoblast cell line, as models. In preparation, a plasmid was first constructed by amplifying a gene fragment containing a rat ANF promoter region and subcloning it into the PCL3-BV luciferase reporter plasmid of Promega. The P19 cells were temporarily transfected with said plasmid and cultured in Modified Eagle's Medium alpha (MEM-α) with 7.5% neonatal calf serum and 2.5% fetal bovine serum at 37° C. under 5% CO2 in monolayers for 8 days, during which the medium was exchanged three times. The respective compounds were added at about 60% confluence in DMSO as solvents at a concentration of 1 μM or DMSO alone (as a blank). The luminescence of the samples was measured with a Perkin Elmer Victor V 1420 Multilabel Counter. Their increase or decrease in the presence of the compounds of formula (I) is given in Table 1 below in relation to the blank.
(§3) The evaluations have the following meanings: • − decrease of luminescence compared to the blank value; • + measurable increase; • ++ at least 1.5-fold increase; • +++ at least 2-fold increase; • * represents C2C12 cells; and • ** represents P19 cells.

zebrafish embryos = conditions: literature (Peterson et al.); cited from earlier work
[2] = system: Atrial natriuretic factor (ANF) expression, P19 cells; experiment: ANF test (ANF promoter luciferase reporter) in P19 cells; format: cell-based, murine; set-up: key to Evaluation (luminescence in relation to the blank): −: decrease of luminescence compared to the blank value; +: measurable increase; ++: at least 1.5-fold increase; +++: at least 2-fold increase
Description: as §1, §2, §3

COc1ccc(Nc2nc(Cl)nc(NCCCO)n2)cc1 [(2), 3-[4-chloro-6-(4-methoxyphenylamino)-1,3,5-triazin-2-ylamino]propan-1-ol]
melting point: 155 to 159 °C | Evaluation (luminescence in relation to the blank) [1]: ++* (at least 1.5-fold increase) | efficiency in ANF test, stated in words ([1]; C2C12 cells, 1 μM): very good efficiency

COc1ccc(Nc2nc(Cl)nc(NCCO)n2)cc1 [Compound (1), 2-[4-chloro-6-(4-methoxyphenylamino)-1,3,5-triazin-2-ylamino]ethanol]
melting point: 169 to 173 °C | Evaluation (luminescence in relation to the blank) [1]: +*

O=C(O)c1cccc(Nc2nc(Oc3ccccc3)nc(Oc3ccccc3)n2)c1 [DTAB, 3-[(4.6-diphenoxy-1,3,5-triazin-2-yl)amino]benzoic acid, reference compound]
Evaluation (luminescence in relation to the blank) [1]: −* −** | influence on embryo development (zebrafish embryos): substantial influence on the formation of the anterior-posterior (A-P) axis and organ development in embryos | ANF expression level / efficiency, stated in words ([2]; ANF test, P19 cells (DTAB and summary statements also cover C2C12)): substantially no changes in the ANF expression level were found, even a slight decrease | Evaluation (luminescence in relation to the blank) ([2]; P19 cells (**), compound 1 μM in DMSO, 8 days culture, relative to DMSO blank): −* −**
